Patent US12605423B2, “Peptide inhibitors targeting methyltransfer mechanism of SARS-CoV-2” (United Arab Emirates University, priority 2021, dated 2026)
≈ marks a conversion by molar mass, not a printed value. Entries after “also recorded” stand apart in the source; their conditions may differ.

How the values were obtained:
in vitro = conditions: human, Cytotoxic Concentration (CC50), Caco-2 cells
IL-6 = assay type: cell-based; conditions: 10 μM peptide, versus PBS control; for IL-6 induction: NCIH1792 (H1792) human lung cells

Compound | CC50 (in vitro) | stimulation of the intrinsic secretion of IL-6 (IL-6; NCIH1792 (H1792) cells) | IL-6 induction (IL-6)
CC[C@H](C)[C@H](NC(=O)[C@H](Cc1c[nH]cn1)NC(=O)[C@H](CS)NC(=O)[C@H](CCCNC(=N)N)NC(=O)[C@H](CS)NC(=O)[C@H](Cc1ccc(O)cc1)NC(=O)[C@H](CC(C)C)NC(=O)[C@H](CS)NC(=O)[C@H](CS)NC(=O)[C@H](CO)NC(=O)[C@H](C)NC(=O)CNC(=O)CNC(=O)[C@H](Cc1ccccc1)NC(=O)CNC(=O)[C@H](CO)NC(=O)CNC(=O)[C@H](CCCNC(=N)N)NC(=O)[C@H](CCCNC(=N)N)NC(=O)[C@H](CCCNC(=N)N)NC(=O)[C@H](CCC(N)=O)NC(=O)[C@H](CCCNC(=N)N)NC(=O)[C@H](CCCNC(=N)N)NC(=O)[C@H](CCCCN)NC(=O)[C@H](CCCCN)NC(=O)[C@H](CCCNC(=N)N)NC(=O)CNC(=O)[C@H](Cc1ccc(O)cc1)NC(C)=O)C(=O)N[C@@H](CC(=O)O)C(=O)N[C@@H](Cc1c[nH]cn1)C(=O)N1CCC[C@H]1C(=O)N[C@@H](CC(N)=O)C(=O)N1CCC[C@H]1C(=O)N[C@@H](CCCCN)C(=O)NCC(=O)N[C@@H](Cc1ccccc1)C(=O)N[C@@H](CS)C(=O)N[C@@H](CC(=O)O)C(=O)N[C@@H](CC(C)C)C(=O)N[C@@H](CCCCN)C(=O)NCC(=O)N[C@@H](CCCCN)C(=O)N[C@@H](Cc1ccc(O)cc1)C(N)=O [Peptide P1] | 11 µg/mL (≈ 2.19 µM) | more than 4 fold | strongly increased IL-6 secretion; also recorded: profound induction of IL-6 secretion
YGRKKRRQRRRGSG [TAT sequence, reference compound] | – | – | no increase in IL-6
